Like-named read-outs stand apart in the source and are kept apart here.
Key:
[1] = biological target: T1, human α1D‐adrenoceptor (full length) (Homo sapiens, UniProt P25100); assay: Intracellular free calcium mobilization, CHO‐α1D cells; format: cell-based; conditions: for Intracellular calcium release % ionomycin: maximal response as % of 10 µM ionomycin
T1 construct: human α1D‐adrenoceptor (full length) were used; expressed in transfected cells; host or cells: CHO-K1
T1 sequence (P25100 1-572): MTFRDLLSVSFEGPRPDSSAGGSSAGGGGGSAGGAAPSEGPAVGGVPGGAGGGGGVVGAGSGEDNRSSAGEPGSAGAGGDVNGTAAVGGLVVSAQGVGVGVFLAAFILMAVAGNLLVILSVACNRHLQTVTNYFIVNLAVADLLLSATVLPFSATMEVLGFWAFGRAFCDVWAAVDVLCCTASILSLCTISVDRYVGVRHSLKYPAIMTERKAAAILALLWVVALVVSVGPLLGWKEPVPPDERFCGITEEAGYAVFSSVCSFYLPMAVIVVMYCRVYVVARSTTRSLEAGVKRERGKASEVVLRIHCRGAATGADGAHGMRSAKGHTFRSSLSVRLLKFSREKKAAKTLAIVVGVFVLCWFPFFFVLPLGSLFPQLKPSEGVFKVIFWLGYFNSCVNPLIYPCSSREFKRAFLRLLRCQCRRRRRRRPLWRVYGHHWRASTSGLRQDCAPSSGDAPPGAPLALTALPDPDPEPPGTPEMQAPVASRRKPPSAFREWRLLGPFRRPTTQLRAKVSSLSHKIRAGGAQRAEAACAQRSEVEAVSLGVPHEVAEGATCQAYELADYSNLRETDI

human α1B‐adrenoceptor [2] = biological target: T2, human α1B‐adrenoceptor (Homo sapiens, UniProt P35368); assay: Intracellular free calcium mobilization, CHO‐α1B cells; format: cell-based; conditions: CHO‐α1B cells; for Intracellular calcium release % Ionomycin at 100 µM: response at 100 µM ligand (no EC50 given), % of ionomycin response
T2 construct: expressed in transfected cells; host or cells: CHO-K1
T2 sequence (P35368 1-520): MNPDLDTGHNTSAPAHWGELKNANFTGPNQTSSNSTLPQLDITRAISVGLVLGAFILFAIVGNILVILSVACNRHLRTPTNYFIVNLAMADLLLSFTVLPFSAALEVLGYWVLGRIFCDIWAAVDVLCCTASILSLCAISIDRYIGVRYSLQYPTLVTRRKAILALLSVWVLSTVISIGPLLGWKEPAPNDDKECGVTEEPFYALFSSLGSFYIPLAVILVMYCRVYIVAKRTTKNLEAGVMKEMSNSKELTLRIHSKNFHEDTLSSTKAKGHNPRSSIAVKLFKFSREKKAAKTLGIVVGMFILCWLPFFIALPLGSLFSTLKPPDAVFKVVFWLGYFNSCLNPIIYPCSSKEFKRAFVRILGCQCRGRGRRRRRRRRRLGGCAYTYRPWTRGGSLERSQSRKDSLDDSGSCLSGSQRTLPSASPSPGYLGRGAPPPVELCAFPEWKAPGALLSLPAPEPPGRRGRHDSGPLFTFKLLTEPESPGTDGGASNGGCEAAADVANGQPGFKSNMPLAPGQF

human α1A‐adrenoceptor [3] = biological target: T3, human α1A‐adrenoceptor (Homo sapiens, UniProt P35348); assay: ERK1/2‐phosphorylation (Surefire Alphascreen), CHO‐α1A cells; format: cell-based
T3 construct: expressed in transfected cells; host or cells: CHO-K1
T3 sequence (P35348 1-466): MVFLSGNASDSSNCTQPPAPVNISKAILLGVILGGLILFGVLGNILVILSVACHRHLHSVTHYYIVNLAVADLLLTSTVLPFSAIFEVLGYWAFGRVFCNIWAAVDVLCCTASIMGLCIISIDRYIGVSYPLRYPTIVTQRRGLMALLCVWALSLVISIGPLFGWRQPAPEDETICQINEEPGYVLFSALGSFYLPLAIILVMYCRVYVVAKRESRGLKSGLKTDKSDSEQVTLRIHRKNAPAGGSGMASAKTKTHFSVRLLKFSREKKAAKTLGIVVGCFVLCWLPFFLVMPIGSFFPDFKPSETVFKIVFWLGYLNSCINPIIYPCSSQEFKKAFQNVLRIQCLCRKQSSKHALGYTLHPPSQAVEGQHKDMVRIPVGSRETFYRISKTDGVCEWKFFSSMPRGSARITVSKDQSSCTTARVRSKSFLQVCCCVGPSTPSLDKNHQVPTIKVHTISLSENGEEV

[4] = biological target: T1, human α1D‐adrenoceptor (full length); assay: ^3H‐prazosin whole‐cell radioligand binding, CHO‐α1D cells
human α1B‐adrenoceptor [5] = biological target: T2, human α1B‐adrenoceptor; assay: ^3H‐prazosin whole‐cell radioligand binding, CHO‐α1B cells; conditions: CHO‐α1B cells; for Log KD, ^3H‐prazosin binding: whole‐cell binding (from Table 1), given as log KD (negative numbers); for Log KD α1B, ^3H‐prazosin whole cell binding: given as log KD (negative), mean ± SEM
human α1B‐adrenoceptor [6] = biological target: T2, human α1B‐adrenoceptor; assay: ERK1/2‐phosphorylation (Surefire Alphascreen), CHO‐α1B cells; format: cell-based; conditions: for ERK1/2‐phosphorylation % PDBu: maximal response as % PDBu response, for bi‐phasic responses the initial stimulatory part
[7] = test system: parental CHO cell line without any transfected receptors; assay: ERK1/2‐phosphorylation, parent CHO cells without transfected receptors; format: cell-based, Chinese hamster
[8] = biological target: T1, human α1D‐adrenoceptor (full length); assay: ERK1/2‐phosphorylation (Surefire Alphascreen), CHO‐α1D cells; format: cell-based; conditions: for ERK1/2‐phosphorylation % PDBu: maximal response as % of PDBu
human α1A‐adrenoceptor [9] = biological target: T3, human α1A‐adrenoceptor; assay: ^3H‐prazosin whole‐cell radioligand binding, CHO‐α1A cells
human α1A‐adrenoceptor [10] = biological target: T3, human α1A‐adrenoceptor; assay: Intracellular free calcium mobilization, CHO‐α1A cells; format: cell-based
[11] = test system: parental CHO cell line without any transfected receptors; assay: Forskolin‐stimulated cAMP accumulation, parent CHO cells without transfected receptors; format: cell-based, Chinese hamster
human α1A‐adrenoceptor [12] = biological target: T3, human α1A‐adrenoceptor; assay: ^3H‐cAMP accumulation, CHO‐α1A cells; format: cell-based; conditions: CHO‐α1A cells; % of 10 µM forskolin response
[13] = CHO‐α1D cells, log values given negative

`C=CCN1CCc2nc(N)sc2CC1` [BHT920] was tested. Which “Intracellular calcium release Log EC50” value [1, 13] did it give?
Its value is “No response”.

And the “Intracellular calcium release % ionomycin” value ([1]; CHO‐α1D cells)?
The value was “No response”.

And the “Intracellular calcium release % Ionomycin at 100 µM” value (human α1B‐adrenoceptor [2])?
The value was 16.3 ± 4.5%.

And the “ERK1/2‐phosphorylation % PDBu” value (human α1A‐adrenoceptor [3])?
The value was 61.4 ± 5.5%.

What about the “ERK1/2‐phosphorylation Log EC50” value (human α1A‐adrenoceptor [3]) of the same molecule?
The value was −5.14 ± 0.05.

What about the “Affinity selectivity ratio α1B vs α1D” value [4] of the same molecule?
Its value is 5.8 fold.

What about the “3H‐prazosin binding Log KD” value ([4]; CHO‐α1D cells, whole‐cell binding (from Table 1), log values given negative) of the same molecule?
The value was −4.49.

What about the “Log KD α1D, ^3H‐prazosin whole cell binding” value ([4]; CHO‐α1D cells, given as log KD (negative), mean ± SEM, 'early plateau' = specific binding not fully inhibited) of the same molecule?
Its value is −4.49 ± 0.07.

And the “Log KD, ^3H‐prazosin binding” value (human α1B‐adrenoceptor [5])?
Its value is −3.73.

And the “Log KD α1B, ^3H‐prazosin whole cell binding” value (human α1B‐adrenoceptor [5])?
The value was −3.73 ± 0.04.

What about the “ERK1/2‐phosphorylation Log EC50” value (human α1B‐adrenoceptor [6]) of the same molecule?
The value was −5.31 ± 0.04.

And the “ERK1/2‐phosphorylation % PDBu” value (human α1B‐adrenoceptor [6]; CHO‐α1B cells)?
Its value is 12.2 ± 3.6%.

What about the “ERK1/2-phosphorylation % PDBu at 100μM” value ([7]; CHO cells without transfected receptors, response at 100μM only, EC50 not obtainable, % of PDBu (10μM)) of the same molecule?
The value was 3.8 ± 1.8%.

What about the “ERK1/2‐phosphorylation Log EC50” value [8] of the same molecule?
The value was “No response”.

What about the “ERK1/2‐phosphorylation % PDBu” value ([8]; CHO‐α1D cells) of the same molecule?
Its value is “No response”.

What about the “Affinity selectivity ratio α1A vs α1B” value (human α1A‐adrenoceptor [9]) of the same molecule?
Its value is 9.3 fold.

And the “Affinity selectivity ratio α1A vs α1D” value (human α1A‐adrenoceptor [9])?
Its value is 1.6 fold.

And the “Log KD α1A, ^3H‐prazosin whole cell binding” value (human α1A‐adrenoceptor [9])?
Its value is −4.70 ± 0.04.

What about the “Intracellular calcium release % ionomycin” value (human α1A‐adrenoceptor [10]) of the same molecule?
The value was 39.7 ± 3.3%.

And the “Intracellular calcium release Log EC50” value (human α1A‐adrenoceptor [10])?
Its value is −5.68 ± 0.09.

What about the “Log efficacy ratio KD /EC50” value (human α1A‐adrenoceptor [10]) of the same molecule?
Its value is 0.98.

With `COc1ccc(CC(C)NCC(O)c2ccc(O)c(NC=O)c2)cc1` (stereo not drawn) [Formoterol] as the molecule, how does the “Intracellular calcium release Log EC50” value [1] read?
Its value is “No response”.

What about the Kd ([4]; 3H‐prazosin binding Log KD) of the same molecule?
The Kd was 7.08 µM.

What about the Kd ([4]; Log KD α1D, ^3H‐prazosin whole cell binding) of the same molecule?
The Kd was 7.08 µM.

What about the “cAMP accumulation (in presence of forskolin) Log EC50” value [11] of the same molecule?
Its value is “No response”.

Which results are given for `CC(C)NCC(O)c1ccc(O)c(O)c1` (stereo not drawn) [Isoprenaline]?
Intracellular calcium release % Ionomycin at 100 µM ([1]; CHO‐α1D cells, response at 100 µM ligand (no EC50 given)): 3.6 ± 1.2%; Intracellular calcium release % ionomycin (human α1B‐adrenoceptor [2]; maximal response as % of 10 µM ionomycin response): 53.9 ± 3.3%; cAMP accumulation (in presence of forskolin) Log EC50 ([11]; CHO cells without transfected receptors, in presence of forskolin): No response; cAMP accumulation % forskolin (human α1A‐adrenoceptor [12]): 16.2 ± 3.0%; ERK1/2‐phosphorylation % PDBu (human α1B‐adrenoceptor [6]; CHO‐α1B cells): 77.8 ± 8.5%; Emax at 100 µM ([7]; Cricetulus griseus, CHO, read-out: ERK1/2-phosphorylation % PDBu at 100μM): 5.1 ± 4.6%; ERK1/2‐phosphorylation % PDBu ([8]; CHO‐α1D cells): 8.5 ± 1.7%

How did the “Intracellular calcium release Log EC50” value [1, 13] turn out when `COc1ccc(OC)c(C(O)CNC(=O)CN)c1` (stereo not drawn) [Midodrine] was run?
The value was “No response”.

What about the “Intracellular calcium release % ionomycin” value ([1]; CHO‐α1D cells) of the same molecule?
Its value is “No response”.

And the “Intracellular calcium release % Ionomycin at 100 µM” value (human α1B‐adrenoceptor [2])?
Its value is 16.9 ± 2.0%.

What about the “ERK1/2‐phosphorylation % PDBu at 100 µM” value (human α1A‐adrenoceptor [3]; CHO‐α1A cells, response at 100 μM ligand, no EC50 obtained) of the same molecule?
The value was 87.7 ± 11.0%.

And the “3H‐prazosin binding log IC50 (bound, printed in Log KD column)” value ([4]; CHO‐α1D cells, whole‐cell binding, given as IC50 > log value)?
Its value is “IC50 > −3”.

And the IC50 ([4]; CHO‐α1D cells, printed as IC50> log value)?
The IC50 was > 1000 µM.

And the “Log KD, ^3H‐prazosin binding” value (human α1B‐adrenoceptor [5])?
Its value is “No binding”.

What about the “Log KD α1B, ^3H‐prazosin whole cell binding” value (human α1B‐adrenoceptor [5]) of the same molecule?
The value was “No binding”.

What about the “ERK1/2‐phosphorylation % PDBu at 100 µM” value (human α1B‐adrenoceptor [6]; CHO‐α1B cells, response at 100 µM ligand (no EC50 given)) of the same molecule?
The value was 20.4 ± 8.0%.

And the “ERK1/2-phosphorylation % PDBu” value ([7]; CHO cells without transfected receptors, maximal response as % of PDBu (10μM) response, mean ± s.e.m.)?
The value was “No response”.

And the “ERK1/2-phosphorylation Log EC50” value ([7]; CHO cells without transfected receptors, mean ± s.e.m.)?
The value was “No response”.

And the “ERK1/2‐phosphorylation Log EC50” value [8, 13]?
Its value is “No response”.

And the “ERK1/2‐phosphorylation % PDBu” value ([8]; CHO‐α1D cells)?
The value was “No response”.

Reference: PMC8343220, “The selectivity of α‐adrenoceptor agonists for the human α1A, α1B, and α1D‐adrenoceptors” (Pharmacology Research & Perspectives, 2021)
